Where two headings read alike, the source gives them in different places. Numbered stars: 1 amine (or outer) side, 2 acyl side, 3 side chain; on linkers, the order of the positions; unused ones are H or OH. Bridge positions count the residues as written; N and C are the ends. Square brackets hold non-standard residues; d marks the D form. Peptide text beside a SMILES is read from it. * marks the point of attachment. TtdsdLys(DOTA)NH2 = NC(=O)[C@@H](CCCCNC(=O)CN1CCN(CC(=O)O)CCN(CC(=O)O)CCN(CC(=O)O)CC1)NC(=O)CCC(=O)NCCCOCCOCCOCCCN*; DOTA = O=C(O)CN1CCN(CC(=O)O)CCN(CC(=O)*)CCN(CC(=O)O)CC1; Phe(3-CN) = N#Cc1cccc(C[C@H](N)C(=O)O)c1; Phe(3-Cl) = N[C@@H](Cc1cccc(Cl)c1)C(=O)O; Phe(4-Cl) = N[C@@H](Cc1ccc(Cl)cc1)C(=O)O; X4 = O=C(CN1CCC(N[*:1])CC1)[*:2]; X1 = O=C(CC1CCN([*:1])CC1)[*:2]; Cit = NC(=O)NCCC[C@H](N)C(=O)O; Lys(Me) = CNCCCC[C@H](N)C(=O)O; Tle = CC(C)(C)[C@H](N)C(=O)O; Isovaleryl = CC(C)CC(=O)*; Nle = CCCC[C@H](N)C(=O)O; Hexanoyl = CCCCCC(=O)*; Aib = CC(C)(N)C(=O)O; CO = O=C([*:1])[*:2]; NHBu = CCCCN*
How the values were obtained:
[1] = target: T1, PSMA-expressing C4-2 cells (Homo sapiens, UniProt Q04609); test: FACS binding assay (competition with 50 nM PSM-0183); settings: read-out: pIC50 [C4-2] CAT (converted)
T1 construct: PSMA-expressing C4-2 cells (ATCC, Cat. No. CRL-3314) were cultured in RPMI-1640; host or cells: C4-2 cells
Outline: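 Competition format: fluorescent tracer PSM-0183 (50 nM) displaced from PSMA on C4-2 cells by a test compound titration over 1 h at 4 °C. Bound tracer was quantified as flow-cytometric AF488 median fluorescence after washing. Four-parameter logistic fits of MFI data gave IC50 and pIC50.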

[2] = target: T2, Fc-fusion protein of human PSMA (hPSMA-Fc) (Homo sapiens, UniProt Q04609); test: Surface plasmon resonance assay (Biacore T200, single cycle kinetic); type: binding; settings: hPSMA-Fc, 25° C., read-out: pKD CAT (converted)
T2 construct: purchased Acro Biosystems PSA-H5264
Outline: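 KD, expressed as pKD, came from 1:1 Langmuir fits of reference- and buffer-blank-subtracted SPR data. The runs were single-cycle kinetics at 25° C in HBST/0.1% DMSO over human PSMA-Fc, captured to ~1000 RU on a peptide-coated CM5 surface and regenerated with 10 mM glycine pH 1.5.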

[3] = FACS binding, PSMA-expressing C4-2 cells, pIC50 category
[4] = pIC50 category of FACS binding, C4-2 cells
[5] = pKD category for PSMA SPR activity assay

T2 sequence (Q04609 44-750 limits assumed): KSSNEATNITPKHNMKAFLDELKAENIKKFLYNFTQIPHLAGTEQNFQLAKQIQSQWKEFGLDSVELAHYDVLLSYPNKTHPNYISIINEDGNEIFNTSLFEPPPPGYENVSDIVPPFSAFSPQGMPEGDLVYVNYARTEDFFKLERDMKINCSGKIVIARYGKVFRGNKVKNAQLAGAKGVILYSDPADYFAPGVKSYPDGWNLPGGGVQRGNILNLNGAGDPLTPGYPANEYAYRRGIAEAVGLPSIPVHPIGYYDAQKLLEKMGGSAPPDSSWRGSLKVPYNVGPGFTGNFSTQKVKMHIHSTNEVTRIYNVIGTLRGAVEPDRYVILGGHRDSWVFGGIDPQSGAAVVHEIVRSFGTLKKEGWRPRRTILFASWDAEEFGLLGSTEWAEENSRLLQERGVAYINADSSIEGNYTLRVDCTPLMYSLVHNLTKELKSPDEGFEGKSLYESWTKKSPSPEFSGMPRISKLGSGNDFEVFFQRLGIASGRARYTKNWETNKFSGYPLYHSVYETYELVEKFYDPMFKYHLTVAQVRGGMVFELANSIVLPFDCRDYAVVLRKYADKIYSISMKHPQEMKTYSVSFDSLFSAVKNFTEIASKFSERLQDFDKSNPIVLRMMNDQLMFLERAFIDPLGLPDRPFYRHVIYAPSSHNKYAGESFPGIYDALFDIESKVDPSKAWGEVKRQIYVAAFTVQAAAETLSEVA
T1 sequence (Q04609 whole entry): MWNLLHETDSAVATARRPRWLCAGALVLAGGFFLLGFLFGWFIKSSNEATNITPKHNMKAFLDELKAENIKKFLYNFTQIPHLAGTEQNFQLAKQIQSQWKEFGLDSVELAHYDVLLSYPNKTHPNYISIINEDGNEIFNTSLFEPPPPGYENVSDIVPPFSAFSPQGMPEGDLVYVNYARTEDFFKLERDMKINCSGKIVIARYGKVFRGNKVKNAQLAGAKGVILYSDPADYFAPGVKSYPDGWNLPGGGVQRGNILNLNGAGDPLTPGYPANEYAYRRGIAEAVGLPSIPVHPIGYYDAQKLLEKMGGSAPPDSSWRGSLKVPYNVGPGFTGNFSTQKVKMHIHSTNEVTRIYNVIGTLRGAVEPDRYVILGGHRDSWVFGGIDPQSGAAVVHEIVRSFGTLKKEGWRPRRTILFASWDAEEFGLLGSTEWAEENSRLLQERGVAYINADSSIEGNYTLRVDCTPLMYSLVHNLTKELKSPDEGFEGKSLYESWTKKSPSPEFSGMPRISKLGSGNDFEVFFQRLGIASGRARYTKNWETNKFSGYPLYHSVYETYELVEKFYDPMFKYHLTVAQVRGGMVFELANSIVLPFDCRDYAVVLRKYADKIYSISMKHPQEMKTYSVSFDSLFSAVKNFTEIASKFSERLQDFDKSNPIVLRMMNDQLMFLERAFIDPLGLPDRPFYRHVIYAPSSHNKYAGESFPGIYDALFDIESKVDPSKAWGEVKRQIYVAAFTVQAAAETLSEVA

CC(=O)N[C@H](C(=O)NC(C)(C)C(=O)N[C@@H](Cc1ccccc1)C(=O)N[C@H]1CSSC[C@@H](C(=O)N[C@H](C(=O)N[C@H](C(=O)N[C@@H](CC(=O)O)C(N)=O)[C@@H](C)O)C(C)(C)C)NC(=O)[C@H](CC(N)=O)NC(=O)[C@H](C)NC(=O)[C@H](CCCNC(N)=O)NC(=O)[C@H](CCCCN)NC1=O)[C@@H](C)O [PSM-0307, Ac-Thr-Aib-Pho-[Cys-Lys-Cit-Ala-Asn-Cys]-Tle-Thr-Asp-NH2] (Ac-T[Aib]FCK[Cit]ANC[Tle]TD-NH2; disulfide 4-9)
IC50 [1, 3]: < 200 nM | Kd ([2]; PSMA SPR assay, pKD category): < 12.6 nM

C[C@@H](O)[C@H](NC(=O)[C@@H](NC(=O)[C@@H]1CSSC[C@H](NC(=O)[C@H](Cc2ccccc2)NC(=O)C(C)(C)NC(=O)CN2CCC(NC(=O)CN3CCN(CC(=O)O)CCN(CC(=O)O)CCN(CC(=O)O)CC3)CC2)C(=O)N[C@@H](CCCCN)C(=O)N[C@@H](CCCNC(=N)N)C(=O)NC(C)(C)C(=O)N[C@@H](CC(N)=O)C(=O)N1)C(C)(C)C)C(N)=O [PSM-0261, DOTA-APAc-Aib-Phe-[Cys-Lys-Arg-Aib-Asn-Cys]-Tle-Thr-NH2] ({DOTA}-[X4][Aib]FCKR[Aib]NC[Tle]T-NH2; disulfide 4-9)
IC50 ([1]; FACS binding, C4-2 cells, competition with 50 nM PSM-0183, category): < 200 nM | Kd ([2]; SPR, single cycle kinetic, category): 12.6 to 126 nM

CC(=O)N[C@@H](Cc1ccc(Cl)cc1)C(=O)N[C@H]1CSSC[C@@H](C(=O)N[C@H](C(N)=O)C(C)(C)C)NC(=O)[C@H](CC(N)=O)NC(=O)C(C)(C)NC(=O)[C@H](CCCNC(=N)N)NC(=O)[C@H](CCCCN)NC1=O [PSM-0281, Ac-Pcf-[Cys-Lys-Arg-Aib-Asn-Cys]-Tle-NH2] (Ac-[Phe(4-Cl)]CKR[Aib]NC[Tle]-NH2; disulfide 2-7)
IC50 [1, 3]: > 3160 nM | Kd ([2]; PSMA SPR assay, pKD category): > 501 nM

CCCCNC(=O)N[C@H](C(=O)NC(C)(C)C(=O)N[C@@H](Cc1cccc(Cl)c1)C(=O)N[C@H]1CSSC[C@@H](C(=O)N[C@H](C(=O)N[C@H](C(=O)N2CCC(CC(=O)N[C@H](CCCCNC(=O)CN3CCN(CC(=O)O)CCN(CC(=O)O)CCN(CC(=O)O)CC3)C(N)=O)CC2)[C@@H](C)O)C(C)(C)C)NC(=O)[C@H](CC(N)=O)NC(=O)C(C)(C)NC(=O)[C@H](CCCNC(=N)N)NC(=O)[C@H](CCCCN)NC1=O)[C@@H](C)O [PSM-0470, nBuCAyl-Thr-Aib-Mcf-[Cys-Lys-Arg-Aib-Asn-Cys]-Tle-Thr-Cmp-lys(DOTA)-NH2] ({NHBu-CO}-T[Aib][Phe(3-Cl)]CKR[Aib]NC[Tle]T[X1][dK](DOTA)-NH2; disulfide 4-9)
IC50 [1, 4]: < 200 nM | Kd [2, 5]: < 12.6 nM

CC(C)CC(=O)NC(C)(C)C(=O)N[C@@H](Cc1ccc(Cl)cc1)C(=O)N[C@H]1CSSC[C@@H](C(=O)N[C@H](C(=O)N[C@H](C(=O)N[C@H](CCCCNC(=O)CN2CCN(CC(=O)O)CCN(CC(=O)O)CCN(CC(=O)O)CC2)C(N)=O)[C@@H](C)O)C(C)(C)C)NC(=O)[C@H](CC(N)=O)NC(=O)C(C)(C)NC(=O)[C@H](CCCNC(=N)N)NC(=O)[C@H](CCCCN)NC1=O [PSM-0444, Iva-Aib-Pcf-[Cys-Lys-Arg-Aib-Asn-Cys]-Tle-Thr-lys(DOTA)-NH2] (Isovaleryl-[Aib][Phe(4-Cl)]CKR[Aib]NC[Tle]T[dK](DOTA)-NH2; disulfide 3-8)
IC50 [1, 4]: < 200 nM | Kd [2, 5]: < 12.6 nM

CC(=O)NC(=N)NCCC[C@@H]1NC(=O)[C@H](CCCCN)NC(=O)[C@@H](NC(=O)[C@H](Cc2ccc(Cl)cc2)NC(=O)C(C)(C)NC(C)=O)CSSC[C@@H](C(=O)N[C@H](C(=O)N[C@H](C(=O)N2CCC(CC(=O)N[C@H](CCCCNC(=O)CN3CCN(CC(=O)O)CCN(CC(=O)O)CCN(CC(=O)O)CC3)C(N)=O)CC2)[C@@H](C)O)C(C)(C)C)NC(=O)[C@H](CC(N)=O)NC(=O)C(C)(C)NC1=O [PSM-0298, Ac-Aib-Pcf-[Cys-Lys-Arg(Ac)-Aib-Asn-Cys]-Tle-Thr-Cmp-lys(DOTA)-NH2] (Ac-[Aib][Phe(4-Cl)]CKR(Ac)[Aib]NC[Tle]T[X1][dK](DOTA)-NH2; disulfide 3-8)
IC50 [1, 3]: 200 to 1260 nM | Kd ([2]; PSMA SPR assay, pKD category): 12.6 to 126 nM

CC(=O)N[C@H](C(=O)NC(C)(C)C(=O)N[C@@H](Cc1ccccc1)C(=O)N[C@H]1CSSC[C@@H](C(=O)N[C@H](C(=O)N[C@H](C(=O)N[C@@H](CC(=O)O)C(N)=O)[C@@H](C)O)C(C)(C)C)NC(=O)[C@H](CC(N)=O)NC(=O)[C@H](C)NC(=O)[C@H](CCC(=O)O)NC(=O)[C@H](CCCCN)NC1=O)[C@@H](C)O [PSM-0363, Ac-Thr-Aib-Phe-[Cys-Lys-Glu-Ala-Asn-Cys]-Tle-Thr-Asp-NH2] (Ac-T[Aib]FCKEANC[Tle]TD-NH2; disulfide 4-9)
IC50 [1, 3]: 200 to 1260 nM | Kd ([2]; PSMA SPR assay, pKD category): < 12.6 nM

CCCCCC(=O)N[C@H](C(=O)NC(C)(C)C(=O)N[C@@H](Cc1ccccc1)C(=O)N[C@H]1CSSC[C@@H](C(=O)N[C@H](C(=O)N[C@H](C(=O)NCCCOCCOCCOCCCNC(=O)CCC(=O)N[C@H](CCCCNC(=O)CN2CCN(CC(=O)O)CCN(CC(=O)O)CCN(CC(=O)O)CC2)C(N)=O)[C@@H](C)O)C(C)(C)C)NC(=O)[C@H](CC(N)=O)NC(=O)C(C)(C)NC(=O)[C@H](CCC(N)=O)NC(=O)[C@H](CCCCN)NC1=O)[C@@H](C)O [PSM-0289, Hex-Thr-Aib-Pho-[Cys-Lys-Gln-Aib-Asn-Cys]-Tle-Thr-Ttds-lys(DOTA)-NH2] (Hexanoyl-T[Aib]FCKQ[Aib]NC[Tle]T-{TtdsdLys(DOTA)NH2}; disulfide 4-9)
IC50 [1, 3]: 200 to 1260 nM | Kd ([2]; PSMA SPR assay, pKD category): 12.6 to 126 nM

CCCC[C@@H]1NC(=O)[C@H](CCCCN)NC(=O)[C@@H](NC(=O)[C@H](Cc2ccc(Cl)cc2)NC(=O)C(C)(C)NC(=O)[C@@H](NC(C)=O)[C@@H](C)O)CSSC[C@@H](C(=O)N[C@H](C(=O)N[C@H](C(N)=O)[C@@H](C)O)C(C)(C)C)NC(=O)[C@H](CC(N)=O)NC(=O)C(C)(C)NC1=O [PSM-0338, Ac-Thr-Aib-Pcf-[Cys-Lys-Nle-Aib-Asn-Cys]-Tle-Thr-NH2] (Ac-T[Aib][Phe(4-Cl)]CK[Nle][Aib]NC[Tle]T-NH2; disulfide 4-9)
IC50 [1, 3]: < 200 nM | Kd ([2]; PSMA SPR assay, pKD category): < 12.6 nM

CC(=O)N[C@H](C(=O)NC(C)(C)C(=O)N[C@@H](Cc1ccc(Cl)cc1)C(=O)N[C@H]1CSSC[C@@H](C(=O)N[C@H](C(=O)N[C@H](C(N)=O)[C@@H](C)O)C(C)(C)C)NC(=O)[C@H](CO)NC(=O)C(C)(C)NC(=O)[C@H](CCCNC(N)=O)NC(=O)[C@H](CCCCN)NC1=O)[C@@H](C)O [PSM-0293, Ac-Thr-Aib-Pcf-[Cys-Lys-Cit-Aib-Ser-Cys]-Tle-Thr-NH2] (Ac-T[Aib][Phe(4-Cl)]CK[Cit][Aib]SC[Tle]T-NH2; disulfide 4-9)
IC50 [1, 3]: < 200 nM | Kd ([2]; PSMA SPR assay, pKD category): < 12.6 nM

CC(=O)N[C@H](C(=O)NC(C)(C)C(=O)N[C@@H](Cc1cccc(C#N)c1)C(=O)N[C@H]1CSSC[C@@H](C(=O)N[C@H](C(=O)N[C@H](C(N)=O)[C@@H](C)O)C(C)(C)C)NC(=O)[C@H](CC(N)=O)NC(=O)C(C)(C)NC(=O)[C@H](CCCNC(=N)N)NC(=O)[C@H](CCCCN)NC1=O)[C@@H](C)O [PSM-0555, Ac-Thr-Aib-Mnf-[Cys-Lys-Arg-Aib-Asn-Cys]-Tle-Thr-NH2] (Ac-T[Aib][Phe(3-CN)]CKR[Aib]NC[Tle]T-NH2; disulfide 4-9)
IC50 [1, 4]: < 200 nM | Kd [2, 5]: < 12.6 nM

CNCCCC[C@@H]1NC(=O)[C@@H](NC(=O)[C@H](Cc2ccc(Cl)cc2)NC(=O)C(C)(C)NC(=O)[C@@H](NC(=O)CC2CCN(C(=O)CN3CCN(CC(=O)O)CCN(CC(=O)O)CCN(CC(=O)O)CC3)CC2)[C@@H](C)O)CSSC[C@@H](C(=O)N[C@H](C(=O)N[C@H](C(N)=O)[C@@H](C)O)C(C)(C)C)NC(=O)[C@H](CC(N)=O)NC(=O)C(C)(C)NC(=O)[C@H](CCCNC(=N)N)NC1=O [PSM-0410, DOTA-Cmp-Thr-Aib-Pcf-[Cys-Lys(Me)-Arg-Aib-Asn-Cys]-Tle-Thr-NH2] ({DOTA}-[X1]T[Aib][Phe(4-Cl)]C[Lys(Me)]R[Aib]NC[Tle]T-NH2; disulfide 5-10)
IC50 [1, 4]: < 200 nM | Kd [2, 5]: < 12.6 nM

From patent publication US20260083865A1, “PROSTATE SPECIFIC MEMBRANE ANTIGEN (PSMA) LIGANDS AND USE THEREOF” (priority 2022, published 2026)
